Laboratory results from ChEMBL document CHEMBL1137191, “Evaluation of pyrrolidin-2-imines and 1,3-thiazolidin-2-imines as inhibitors of nitric oxide synthase” (Bioorg Med Chem Lett, 2004).

Tests used:
[1] = target: T1, Nitric oxide synthase 3 (Homo sapiens) (UniProt P29474); assay: Ratio between Endothelial nitric oxide synthase and Inducible nitric oxide synthase
T1 sequence (whole entry): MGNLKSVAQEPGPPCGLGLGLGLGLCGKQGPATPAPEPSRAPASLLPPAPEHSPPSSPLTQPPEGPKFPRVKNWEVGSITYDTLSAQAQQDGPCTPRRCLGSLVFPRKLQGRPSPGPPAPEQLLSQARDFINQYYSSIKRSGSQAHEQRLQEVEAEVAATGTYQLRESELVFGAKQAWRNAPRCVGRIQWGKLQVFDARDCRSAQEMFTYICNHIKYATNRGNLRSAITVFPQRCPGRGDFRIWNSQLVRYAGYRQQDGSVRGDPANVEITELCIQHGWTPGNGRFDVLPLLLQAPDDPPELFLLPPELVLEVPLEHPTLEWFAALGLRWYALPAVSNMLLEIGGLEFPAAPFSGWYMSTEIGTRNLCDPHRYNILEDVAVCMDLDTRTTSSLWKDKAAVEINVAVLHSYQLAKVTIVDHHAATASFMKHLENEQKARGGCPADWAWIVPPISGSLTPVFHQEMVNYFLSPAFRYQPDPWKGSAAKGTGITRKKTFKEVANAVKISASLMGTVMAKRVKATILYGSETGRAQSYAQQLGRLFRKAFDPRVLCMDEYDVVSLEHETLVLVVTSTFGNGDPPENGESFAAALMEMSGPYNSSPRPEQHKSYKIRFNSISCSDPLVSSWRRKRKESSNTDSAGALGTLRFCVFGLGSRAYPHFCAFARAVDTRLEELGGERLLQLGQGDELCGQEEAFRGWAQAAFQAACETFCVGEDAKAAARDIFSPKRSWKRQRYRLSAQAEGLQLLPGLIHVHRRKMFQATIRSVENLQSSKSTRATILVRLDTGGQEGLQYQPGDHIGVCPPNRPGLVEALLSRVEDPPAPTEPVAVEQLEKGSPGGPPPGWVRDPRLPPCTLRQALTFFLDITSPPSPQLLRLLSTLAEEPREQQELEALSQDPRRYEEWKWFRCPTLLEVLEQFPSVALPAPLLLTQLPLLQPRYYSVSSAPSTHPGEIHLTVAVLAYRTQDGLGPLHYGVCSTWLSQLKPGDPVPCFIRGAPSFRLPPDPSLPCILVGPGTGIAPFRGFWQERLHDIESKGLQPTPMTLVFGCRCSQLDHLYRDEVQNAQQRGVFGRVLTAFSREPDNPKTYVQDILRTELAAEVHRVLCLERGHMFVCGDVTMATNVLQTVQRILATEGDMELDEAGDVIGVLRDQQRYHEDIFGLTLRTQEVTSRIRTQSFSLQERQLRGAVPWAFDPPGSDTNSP

Nitric oxide synthase 1 = Nitric oxide synthase 1 (Homo sapiens, UniProt P29475); assay: Inhibitory activity against Neuronal nitric oxide synthase
[2] = target: Nitric oxide synthase, inducible (Homo sapiens, UniProt P35228); assay: Inhibitory activity against Inducible nitric oxide synthase
Nitric oxide synthase 3 = target: T2, Nitric oxide synthase 3 (Homo sapiens, UniProt P29474); assay: Inhibitory activity against Endothelial nitric oxide synthase
T2 sequence (P29474 whole entry): T1 sequence (whole entry)

Sequence of Nitric oxide synthase 1 (P29475 whole entry): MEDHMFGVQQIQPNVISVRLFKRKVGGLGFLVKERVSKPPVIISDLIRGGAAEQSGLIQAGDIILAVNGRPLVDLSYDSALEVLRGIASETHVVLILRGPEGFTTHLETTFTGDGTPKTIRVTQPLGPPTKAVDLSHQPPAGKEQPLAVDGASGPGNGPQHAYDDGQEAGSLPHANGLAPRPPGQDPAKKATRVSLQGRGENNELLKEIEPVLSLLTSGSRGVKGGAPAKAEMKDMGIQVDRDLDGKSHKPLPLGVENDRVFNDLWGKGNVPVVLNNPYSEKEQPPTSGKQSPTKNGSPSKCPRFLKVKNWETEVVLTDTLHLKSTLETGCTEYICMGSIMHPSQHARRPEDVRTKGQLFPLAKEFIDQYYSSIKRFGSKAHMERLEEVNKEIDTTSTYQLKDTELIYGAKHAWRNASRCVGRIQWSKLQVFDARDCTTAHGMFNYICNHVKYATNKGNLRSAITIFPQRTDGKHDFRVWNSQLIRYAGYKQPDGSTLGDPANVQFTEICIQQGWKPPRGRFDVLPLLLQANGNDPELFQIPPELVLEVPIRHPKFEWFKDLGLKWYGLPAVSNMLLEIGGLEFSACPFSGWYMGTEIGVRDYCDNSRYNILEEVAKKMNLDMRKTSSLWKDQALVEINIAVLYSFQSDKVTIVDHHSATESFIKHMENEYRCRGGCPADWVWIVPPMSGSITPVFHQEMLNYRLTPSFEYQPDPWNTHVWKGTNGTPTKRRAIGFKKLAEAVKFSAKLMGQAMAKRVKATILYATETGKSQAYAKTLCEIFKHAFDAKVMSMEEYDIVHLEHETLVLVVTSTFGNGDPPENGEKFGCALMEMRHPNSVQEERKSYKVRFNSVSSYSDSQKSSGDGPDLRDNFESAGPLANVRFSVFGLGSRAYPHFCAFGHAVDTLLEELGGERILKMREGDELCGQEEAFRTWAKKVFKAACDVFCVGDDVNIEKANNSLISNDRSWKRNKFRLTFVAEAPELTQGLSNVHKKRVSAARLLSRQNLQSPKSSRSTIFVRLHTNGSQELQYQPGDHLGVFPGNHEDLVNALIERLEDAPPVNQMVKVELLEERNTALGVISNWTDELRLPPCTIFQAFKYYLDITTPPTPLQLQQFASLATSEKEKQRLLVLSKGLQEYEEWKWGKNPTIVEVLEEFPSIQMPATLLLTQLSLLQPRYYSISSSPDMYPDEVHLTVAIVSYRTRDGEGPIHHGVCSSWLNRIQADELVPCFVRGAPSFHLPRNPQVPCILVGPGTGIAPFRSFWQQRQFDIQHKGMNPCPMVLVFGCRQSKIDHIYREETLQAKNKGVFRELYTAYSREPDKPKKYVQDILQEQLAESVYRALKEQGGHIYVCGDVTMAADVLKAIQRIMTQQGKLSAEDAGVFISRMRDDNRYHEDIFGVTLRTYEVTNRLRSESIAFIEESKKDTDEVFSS
Sequence of Nitric oxide synthase, inducible (P35228 whole entry): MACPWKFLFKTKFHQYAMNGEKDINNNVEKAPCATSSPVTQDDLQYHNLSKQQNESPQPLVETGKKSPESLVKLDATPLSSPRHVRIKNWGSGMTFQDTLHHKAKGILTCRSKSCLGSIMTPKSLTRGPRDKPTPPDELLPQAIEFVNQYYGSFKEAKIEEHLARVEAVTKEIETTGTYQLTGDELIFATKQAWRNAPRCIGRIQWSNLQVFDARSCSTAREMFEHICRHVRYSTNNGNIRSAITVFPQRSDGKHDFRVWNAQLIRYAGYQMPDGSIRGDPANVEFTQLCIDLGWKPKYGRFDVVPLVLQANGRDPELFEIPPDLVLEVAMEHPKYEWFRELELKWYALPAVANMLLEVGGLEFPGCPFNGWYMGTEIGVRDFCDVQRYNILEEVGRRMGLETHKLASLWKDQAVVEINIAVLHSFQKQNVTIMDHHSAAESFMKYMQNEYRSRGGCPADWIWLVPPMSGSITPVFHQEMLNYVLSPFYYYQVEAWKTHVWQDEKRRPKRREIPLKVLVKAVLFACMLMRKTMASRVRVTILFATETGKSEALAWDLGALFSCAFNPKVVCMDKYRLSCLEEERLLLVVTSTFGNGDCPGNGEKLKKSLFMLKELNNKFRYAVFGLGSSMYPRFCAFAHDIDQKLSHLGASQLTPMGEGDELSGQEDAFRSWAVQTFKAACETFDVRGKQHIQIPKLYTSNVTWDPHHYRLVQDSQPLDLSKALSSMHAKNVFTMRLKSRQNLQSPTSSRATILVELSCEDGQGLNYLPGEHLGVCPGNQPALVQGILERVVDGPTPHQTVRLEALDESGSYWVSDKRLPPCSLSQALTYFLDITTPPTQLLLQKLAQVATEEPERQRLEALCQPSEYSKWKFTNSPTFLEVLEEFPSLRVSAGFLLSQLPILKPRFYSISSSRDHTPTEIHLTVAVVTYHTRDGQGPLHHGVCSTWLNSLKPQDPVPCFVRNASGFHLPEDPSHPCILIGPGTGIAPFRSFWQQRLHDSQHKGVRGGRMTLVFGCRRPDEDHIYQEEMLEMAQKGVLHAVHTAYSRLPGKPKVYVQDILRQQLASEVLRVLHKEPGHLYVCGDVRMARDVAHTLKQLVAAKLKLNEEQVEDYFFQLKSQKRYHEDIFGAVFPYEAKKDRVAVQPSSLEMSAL

SMILES | Ratio [1] | IC50 (Nitric oxide synthase 1) [µM] | IC50 [2] [µM] | IC50 (Nitric oxide synthase 3) [µM]
CC(C)C1CN=C(N)C1 (stereo unspecified) | 25 | 10.6 | 3.5 | 87.8
CC1CN=C(N)C1C (stereo unspecified) | 7.2 | 0.61 | 1.2 | 8.7
NC1=NCCS1 | 1.2 | 1.8 | 0.9 | 1.1
CC1CCN=C1N (stereo unspecified) | 1.2 | 0.9 | 1.5 | 1.8
CCCC1CN=C(N)C1 (stereo unspecified) | 1.4 | 53 | 38.7 | 53
CCCCC1CSC(N)=N1 (stereo unspecified) | – | 13.2 | 5.2 | > 50
NC1=NCC(c2ccccc2)C1 (stereo unspecified) | – | > 50 | > 50 | > 50
CC1CN=C(N)S1 (stereo unspecified) | – | > 50 | > 50 | > 50
NC1=NC2CCCC2C1 (stereo unspecified) | – | 9.9 | > 50 | > 50
CCCC1CC(N)=NC1C (stereo unspecified) | 8 | 27 | 13.1 | 104
CCC1CC(N)=NC1C (stereo unspecified) | 38 | 0.14 | 0.16 | 6.3
CCCC1CC(N)=NC1CC (stereo unspecified) | 22 | 17.3 | 10.2 | 227
N=C1CCC2CCCCN12 (stereo unspecified) | – | > 50 | > 50 | > 50
N=C1CCC2CCCN12 (stereo unspecified) | – | 9.6 | > 50 | 33
N=C1SCC2CCCN12 (stereo unspecified) | – | 14 | > 50 | > 50
CC(=N)NCCCC[C@H](N)C(=O)O [L-NIL] | 3.7 | 17.5 | – | –
CCC1CC(C)C(N)=N1 (stereo unspecified) | 0.24 | 2.4 | 23 | 5.5
NC1=NC(c2ccccc2)CS1 (stereo unspecified) | – | > 50 | > 50 | > 50
CC1CC(N)=NC1C (stereo unspecified) | – | 0.13 | 0.3 | 0.6
CC1CN=C(N)C1 (stereo unspecified) | 13 | 0.8 | 0.2 | 2.6
CC1CCC(N)=N1 (stereo unspecified) | 1.4 | 3.1 | 1.3 | 1.9
NC1=NCCC1 | 1.1 | 9.6 | 4.1 | 4.6
N=C1SCC2CCCCN12 (stereo unspecified) | – | > 50 | > 50 | > 50
CCC1CN=C(N)C1C (stereo unspecified) | 65 | 0.61 | 0.93 | 60.6
CCC1CN=C(N)C1 (stereo unspecified) | 27 | 2.6 | 0.5 | 14.5
CCCC1N=C(N)CC1C (stereo unspecified) | 24 | 4.8 | 2 | 49
CCC1N=C(N)CC1C (stereo unspecified) | 26 | 0.08 | 0.02 | 0.52
